{"source": "patent US9388215B2", "about": "“Compositions and methods of using islet neogenesis peptides and analogs thereof” (SHENZHEN HIGHTIDE BIOPHARMACEUTICAL, LTD., priority 2013, dated 2016)", "key": {"[1]": {"system": "STZ induced diabetic mice", "assay": "Efficacy in streptozotocin (STZ) induced diabetic mice model", "assay_type": "in vivo, mouse", "procedure": "After acclimatization in the animal facility for one week, 6-8 weeks old C57BL/6J mice were administered low dose STZ at 40 mg/kg in citrate buffer for 5 consecutive days to establish a T1D animal model. Mice with blood glucose greater than 16.7 mmol/L at 5 days post last STZ injection were included in the study. These mice were then treated with INGAP-PP (Peptide 1) or Peptide 7 at the doses of 5 mg/kg (2.5 mg/kg, bid (twice a day)) or 25 mg/kg (12.5 mg/kg, bid) for 20 days before sacrifices. Two additional groups of diabetic mice were administered either saline or a peptide (Peptide 3) composed of a scrambled sequence of amino acids from Peptide 1 as control groups. Blood glucose and insulin levels were measured, and 20 days post the last dosing of test agents, an oral glucose tolerance test (OGTT) was performed in 6 hour fasted animals to determine the effect of Peptide 1 and Peptide 7. Blood samples obtained from the tail cut for glucose determination were detected with an ACCU-CHEK™ glucometer (Roche, ACCU-CHEK® Active), and insulin levels were determined with Rat/Mouse Insulin Elisa kit (Millipore, Billerica, Mass. USA). For the OGTT, after the measurement of the basal glucose concentration (T=−30 min), mice received an oral glucose challenge at 2 g/kg and glucose values were determined by glucometer at 0, 15, 30, 60, 90 and 120 min."}, "[2]": {"system": "normal C57BL/6J mice", "assay": "Induction of small β-cell clusters in normal C57BL/6J mice (islet size distribution)", "assay_type": "in vivo, mouse", "procedure": "After a 1-week acclimation, C57BL/6J female mice were randomly divided into 4 groups. The two control groups received either 10 mL/kg sterile normal saline (n=4) or scrambled peptide (Peptide 3, 25 mg/kg) (n=5) via subcutaneous injection for 10 days. The other two groups received INGAP-PP (Peptide 1) or INGAP-PP analog Peptide 7 at a dose of 25 mg/kg per day respectively (n=7 per group) for the same period. Body weight and 6 hour fasting blood glucose were measured before treatment and after the last dosing of treatment. Plasma and pancreatic insulin were also measured at the end of the study. On day 11, the pancreas was removed from each animal, cleared of fat and lymph nodes, weighed, and fixed in 10% neutral buffered formalin (NBF) for no longer than 24 hours before processing for morphometric analysis.\nImmunohistochemistry analysis was used to determine pancreatic islet size distribution."}, "[3]": {"system": "ARIP cells", "assay": "ARIP cell proliferation (BrdU ELISA / CellTiter-Glo)", "assay_type": "cell-based, rat", "settings": "100 nM peptide; compared to INGAP scrambled peptide and INGAP-PP; FIG. 1", "procedure": "To measure cell proliferation, a bromodeoxyuridine (BrdU) ELISA assay was performed. Briefly, ARIP cells (ATCC (American Type Culture Collection), Manassas Va. USA), a rat pancreatic ductal cell line, were cultured in F-12K medium (Gibco-BRL, Gaithersburg, Md., USA) containing 10% fetal bovine serum (FBS; HyClone, Thermo Fisher Scientific Inc.; Waltham Mass. USA), 100 μg/ml streptomycin and 100 μg/ml penicillin in a cell incubator. ARIP cells were seeded into 96-well culture plates at 8000 or 0 (as blank control) cells/well in a volume of 50 μl cell culture medium and incubated overnight for the following experiments. On the second day, after replacing the medium with medium without serum, 50 μl serum-free cell culture medium containing test peptides at a series concentrations (final concentrations were 10 μM, 5 μM, 1 μM, 500 nM, 100 nM, 50 nM, 10 nM and 1 nM) were added to seeded cells. Medium without compound was added to negative control and background control wells. […] The absorbance at 450 nm (reference wavelength 690 nm) on an EnVision™ plate reader (Perkin Elmer, Boston Mass.) within 5 min after adding the stop solution was measured.\nTo test for cell viability, a CellTiter-Glo™ (CTG) assay (Promega, Madison Wis.) was performed. […] Luminescence signal was quantified on an EnVision™ plate reader after a 10 minute incubation at room temperature."}, "[4]": {"assay": "Peptide stability in culture medium (F-12K, 37° C., HPLC)", "assay_type": "physicochemical", "settings": "F-12K medium, 0.25 mg/mL, 0-72 hours, FIG. 2, FIG. 11", "procedure": "To determine the stability of peptides in culture medium, a certain amount of selected peptides was accurately weighed and dissolved in distilled water to 5 mg/mL as a stock solution. The stock solution was diluted to 0.25 mg/mL with F-12K medium (Gibco-BRL, Gaithersburg, Md., USA) as working solution. A volume of 100 μL of each working solution was transferred into individual sample vials. The sample vials were incubated in a 37° C. incubator for 0, 24, 48 and 72 hours before being analyzed and quantitated by HPLC. […]"}}}
{"substance": "H-IGLHDPSHGTLPAGS-OH [Peptide 7, H-IGLHDPSHGTLPAGS-OH]", "values": [{"measurement": "effect on body weight or pancreas weight", "setting": "[1]; 5 mg/kg or 25 mg/kg for 20 days", "value": "did not affect body weight or pancreas weight"}, {"measurement": "plasma insulin levels vs saline controls", "setting": "[1]; 25 mg/kg dose group, end of the 20-day period, FIG. 6B", "value": "significantly different from saline controls and almost restored to the level of the naive group"}, {"measurement": "glucose tolerance (OGTT, AUC of glucose)", "setting": "[1]; FIG. 6C", "value": "improved glucose tolerance"}, {"measurement": "blood glucose levels vs saline control group", "setting": "[1]; day 21 of treatment, FIG. 6A", "value": "Significant differences in blood glucose levels"}, {"measurement": "number of islets, islet size (Log [μm^2]) ranging from 2.1 to 0.7", "setting": "[2]; normal female C57BL/6J mice, 25 mg/kg per day, 10 days, versus naive/control group, FIG. 7", "value": "numbers increased significantly"}, {"measurement": "effect on body weight, blood glucose, plasma insulin, pancreas insulin, pancreas weight", "setting": "[2]; normal mice, 25 mg/kg per day sc for 10 days, compared to saline group", "value": "did not affect body weight, blood glucose, plasma insulin, pancreas insulin, or pancreas weight"}, {"measurement": "percentage increase in cell number (ARIP cell proliferation)", "setting": "[3]", "value": "significantly higher percentage increase in cell number"}, {"measurement": "stability in culture medium", "setting": "[4]", "value": "significantly more stable than INGAP-PP peptide in culture medium"}]}
